Measurements from patent publication US12692269B2, “Therapeutic compounds” (Genentech, Inc., priority 2019, dated 2026).

How the values were obtained:
Type in all cases: binding
TEAD1 YAP50-100 = TEAD1 YAP50-100 (Homo sapiens, UniProt P28347); assay: TEAD1-YAP HTRF (TR-FRET) protein-protein interaction assay; details: TEAD1, YAP peptide 50-100, HTRF; for EC50: read-out: TEAD1 YAP50-100 HTRF combined: EC50
How it was run: (§1)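 His-tagged TEAD YAP-binding domain (aa 217-447) pre-bound to Eu anti-His tracer, incubated with compound 30 min, then biotinylated YAP (aa 50-100) or TAZ (aa 13-57) peptide with streptavidin-XL665 added for 60 min at room temperature. TR-FRET read at 665/615 nm; IC50 or EC50 from four-parameter fit.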

TEAD2 YAP50-100 = TEAD2 YAP50-100 (Homo sapiens, UniProt Q15562); assay: TEAD2-YAP HTRF (TR-FRET) protein-protein interaction assay; details: TEAD2, YAP peptide 50-100, HTRF; for EC50: read-out: TEAD2 YAP50-100 HTRF combined: EC50
TEAD2 YAP50-100, sequence (Q15562 217-447): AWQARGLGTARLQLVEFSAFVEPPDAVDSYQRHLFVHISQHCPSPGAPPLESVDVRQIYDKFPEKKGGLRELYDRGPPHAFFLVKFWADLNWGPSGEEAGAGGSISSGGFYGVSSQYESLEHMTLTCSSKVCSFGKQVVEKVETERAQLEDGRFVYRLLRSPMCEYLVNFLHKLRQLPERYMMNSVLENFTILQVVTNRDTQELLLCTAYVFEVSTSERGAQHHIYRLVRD
How it was run: as §1

TEAD3 YAP50-100 = TEAD3 YAP50-100 (Homo sapiens, UniProt Q99594); assay: TEAD3-YAP HTRF (TR-FRET) protein-protein interaction assay; details: TEAD3, YAP peptide 50-100, HTRF; for EC50: read-out: TEAD3 YAP50-100 HTRF combined: EC50
TEAD3 YAP50-100, sequence (Q99594 173-435 limits assumed): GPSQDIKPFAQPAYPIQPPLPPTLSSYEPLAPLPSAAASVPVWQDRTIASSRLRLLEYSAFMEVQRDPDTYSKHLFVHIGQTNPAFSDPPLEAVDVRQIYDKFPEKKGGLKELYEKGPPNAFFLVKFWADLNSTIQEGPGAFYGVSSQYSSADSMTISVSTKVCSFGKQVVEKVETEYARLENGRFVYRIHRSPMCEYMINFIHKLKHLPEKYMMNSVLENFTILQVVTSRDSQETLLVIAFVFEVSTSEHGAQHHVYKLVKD
How it was run: as §1

TEAD4 YAP50-100 = TEAD4 YAP50-100 (Homo sapiens, UniProt Q15561); assay: TEAD4-YAP HTRF (TR-FRET) protein-protein interaction assay; details: TEAD4, YAP peptide 50-100, HTRF; for EC50: read-out: TEAD4 YAP50-100 HTRF combined: EC50
TEAD4 YAP50-100, sequence (Q15561 217-434 limits assumed): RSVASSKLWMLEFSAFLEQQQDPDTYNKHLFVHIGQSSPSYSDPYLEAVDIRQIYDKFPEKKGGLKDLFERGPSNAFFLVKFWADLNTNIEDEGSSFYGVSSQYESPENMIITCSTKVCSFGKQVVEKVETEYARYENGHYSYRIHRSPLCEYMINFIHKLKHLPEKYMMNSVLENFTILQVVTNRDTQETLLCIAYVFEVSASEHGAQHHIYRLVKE
How it was run: as §1

[1] = target: TEAD1 TAZ (amino acids 13-57) (Homo sapiens, UniProt P28347); assay: TEAD1-TAZ HTRF (TR-FRET) protein-protein interaction assay; details: for TEAD1 TAZ HTRF combined: Max % Inhibition: TEAD1, TAZ peptide; for EC50: TEAD1-TAZ HTRF, TR-FRET 665 nm/615 nm, read-out: TEAD1 TAZ HTRF combined: EC50
TEAD1 TAZ (amino acids 13-57), sequence (P28347 167-426 limits assumed): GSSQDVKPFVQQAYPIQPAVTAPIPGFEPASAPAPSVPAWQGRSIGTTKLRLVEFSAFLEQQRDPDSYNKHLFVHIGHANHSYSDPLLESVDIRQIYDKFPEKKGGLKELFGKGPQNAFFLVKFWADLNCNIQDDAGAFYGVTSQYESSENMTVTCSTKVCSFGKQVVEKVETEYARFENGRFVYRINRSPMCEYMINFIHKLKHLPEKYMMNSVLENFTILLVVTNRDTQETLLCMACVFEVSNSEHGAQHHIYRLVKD
How it was run: as §1

[2] = target: TEAD2 TAZ (amino acids 13-57) (Homo sapiens, UniProt Q15562); assay: TEAD2-TAZ HTRF (TR-FRET) protein-protein interaction assay; details: for TEAD2 TAZ HTRF combined: Max % Inhibition: TEAD2, TAZ peptide; for EC50: TEAD2-TAZ HTRF, TR-FRET 665 nm/615 nm, read-out: TEAD2 TAZ HTRF combined: EC50
TEAD2 TAZ (amino acids 13-57), sequence (Q15562 217-447): as the sequence (Q15562 217-447) above
How it was run: as §1

[3] = target: TEAD3 TAZ (amino acids 13-57) (Homo sapiens, UniProt Q99594); assay: TEAD3-TAZ HTRF (TR-FRET) protein-protein interaction assay; details: for TEAD3 TAZ HTRF combined: Max % Inhibition: TEAD3, TAZ peptide; for EC50: TEAD3-TAZ HTRF, TR-FRET 665 nm/615 nm, read-out: TEAD3 TAZ HTRF combined: EC50
TEAD3 TAZ (amino acids 13-57), sequence (Q99594 173-435 limits assumed): as the sequence (Q99594 173-435 limits assumed) above
How it was run: as §1

[4] = target: TEAD4 TAZ (amino acids 13-57) (Homo sapiens, UniProt Q15561); assay: TEAD4-TAZ HTRF (TR-FRET) protein-protein interaction assay; details: for TEAD4 TAZ HTRF combined: Max % Inhibition: TEAD4, TAZ peptide; for EC50: TEAD4-TAZ HTRF, TR-FRET 665 nm/615 nm, read-out: TEAD4 TAZ HTRF combined: EC50
TEAD4 TAZ (amino acids 13-57), sequence (Q15561 217-434 limits assumed): as the sequence (Q15561 217-434 limits assumed) above
How it was run: as §1

TEAD1 YAP50-100, sequence (P28347 167-426 limits assumed): as the sequence (P28347 167-426 limits assumed) above

Row | Compound | TEAD1 YAP50-100 HTRF combined: Max % Inhibition (TEAD1 YAP50-100) [%] | EC50 (TEAD1 YAP50-100) [nM] | TEAD2 YAP50-100 HTRF combined: Max % Inhibition (TEAD2 YAP50-100) [%] | EC50 (TEAD2 YAP50-100) [nM] | TEAD3 YAP50-100 HTRF combined: Max % Inhibition (TEAD3 YAP50-100) [%] | EC50 (TEAD3 YAP50-100) [nM] | TEAD4 YAP50-100 HTRF combined: Max % Inhibition (TEAD4 YAP50-100) [%] | EC50 (TEAD4 YAP50-100) [nM] | TEAD1 TAZ HTRF combined: Max % Inhibition [1] [%] | EC50 [1] [nM] | TEAD2 TAZ HTRF combined: Max % Inhibition [2] [%] | EC50 [2] [nM] | TEAD3 TAZ HTRF combined: Max % Inhibition [3] [%] | EC50 [3] [nM] | TEAD4 TAZ HTRF combined: Max % Inhibition [4] [%] | EC50 [4] [nM]
1 | C[C@@H]1[C@H](CF)CN1C(=O)c1c(-c2ncccn2)nn2c(=O)cc(-c3ccc(C4CCCCC4)cc3)[nH]c12 (single isomer, unassigned) [Isomer A, Example 40] | 75.0 | 60 | 76.0 | 10 | 68.5 | 140 | 53.5 | 30 | 64.5 | 80 | 70.5 | 10 | 63.0 | 160 | 53.0 | 30
2 | C[C@H]1[C@@H](CF)CN1C(=O)c1c(-c2ncccn2)nn2c(=O)cc(-c3ccc(C4CCCCC4)cc3)[nH]c12 (single isomer, unassigned) [Isomer B, Example 40] | 76.0 | 130 | 68.0 | 80 | 68.0 | 440 | 49.5 | 2000 | 70.0 | 140 | 78.5 | 120 | 70.0 | 530 | 51.0 | 2100
3 | O=C(c1c(-c2ccccn2)nn2c(=O)cc(-c3ccc(C4CCCCC4)cc3)[nH]c12)N1CC(CF)C1 [Compound 16, 5-(4-Cyclohexylphenyl)-3-(3-(fluoromethyl)azetidine-1-carbonyl)-2-(pyridin-2-yl)pyrazolo[1,5-a]pyrimidin-7(4H)-one] | 70.0 | 60 | 57.5 | 10 | 55.0 | 80 | 40.5 | 20 | 59.5 | 50 | 53.5 | 10 | 44.5 | 80 | 38.0 | 20
4 | Cc1c(-c2nn3c(=O)cc(-c4ccc(C5CCCCC5)cc4)[nH]c3c2C(=O)N2CC(CF)C2)ncn1C [Compound 30, 5-(4-Cyclohexylphenyl)-2-(1,5-dimethyl-1H-imidazol-4-yl)-3-(3-(fluoromethyl)azetidine-1-carbonyl)pyrazolo[1,5-a]pyrimidin-7(4H)-one] | 71.0 | 70 | 61.5 | 10 | 65.0 | 90 | 45.0 | 180 | 64.5 | 60 | 61.5 | 10 | 51.5 | 80 | 31.5 | 120
5 | Cc1cnc(-c2nn3c(=O)cc(-c4ccc(C5CCCCC5)cc4)[nH]c3c2C(=O)N2CC(CF)C2)cn1 [Compound 26, 5-(4-Cyclohexylphenyl)-3-(3-(fluoromethyl)azetidine-1-carbonyl)-2-(5-methylpyrazin-2-yl) pyrazolo [1,5-a]pyrimidin-7(4H)-one] | 71.0 | 60 | 70.0 | 30 | 66.0 | 140 | 44.5 | 340 | 70.0 | 100 | 72.5 | 30 | 60.0 | 150 | 45.5 | 290
